Biological target: human activated kallikrein enzyme (plasma kallikrein) (Homo sapiens (Human), UniProt P03952)
Assay: Inhibition of human activated plasma kallikrein, fluorogenic peptide substrate assay, 500 pM enzyme format
Format: biochemical
Conditions: 500 pM activated kallikrein enzyme, 300 uM Pro-Phe-Arg-7-amido-4-methylcoumarin substrate, 30 min preincubation, 10 min at RT; read-out: Primary Dose Response Assay: Average EC50
Outline: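 Buffer 20 mM Tris pH 7.5, EDTA, NaCl, PEG-400, Triton X-100; 300 uM Pro-Phe-Arg-AMC; enzyme–inhibitor preincubation 30 min RT. Format one: 500 pM kallikrein, 10 min RT reaction; format two: 5 pM kallikrein, 18 h RT reaction. Fluorescence read at 460 nm (380 nm excitation).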

Chain of human activated kallikrein enzyme (plasma kallikrein) (P03952 391-638): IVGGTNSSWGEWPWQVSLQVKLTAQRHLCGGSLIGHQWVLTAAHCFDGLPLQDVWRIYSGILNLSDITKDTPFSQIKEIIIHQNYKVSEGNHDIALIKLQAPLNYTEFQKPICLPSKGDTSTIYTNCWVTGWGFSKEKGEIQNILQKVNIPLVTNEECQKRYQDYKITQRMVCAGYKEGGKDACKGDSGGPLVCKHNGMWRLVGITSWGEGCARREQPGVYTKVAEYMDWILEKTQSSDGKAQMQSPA
Chain of human activated kallikrein enzyme (plasma kallikrein) (P03952 20-390 partner): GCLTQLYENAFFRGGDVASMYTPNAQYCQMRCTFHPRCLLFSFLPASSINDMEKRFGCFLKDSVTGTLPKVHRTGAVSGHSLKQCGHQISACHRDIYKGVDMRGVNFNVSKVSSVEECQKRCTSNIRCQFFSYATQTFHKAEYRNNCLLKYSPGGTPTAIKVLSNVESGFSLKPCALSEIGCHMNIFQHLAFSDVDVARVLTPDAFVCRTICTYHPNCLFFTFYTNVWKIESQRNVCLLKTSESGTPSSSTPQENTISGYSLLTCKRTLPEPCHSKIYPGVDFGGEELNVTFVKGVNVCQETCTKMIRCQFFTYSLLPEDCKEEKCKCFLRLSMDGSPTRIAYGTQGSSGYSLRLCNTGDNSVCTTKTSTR

| SMILES | EC50 |
| --- | --- |
| CC1(C)CC1c1ccn2cc(Cn3cc(C(=O)NCc4ncn5ccc(Br)cc45)cn3)nc2c1 (centres unmarked) [Example I-49, N-((7-bromoimidazo[1,5-a]pyridin-1-yl)methyl)-1-((7-(2,2-dimethylcyclopropyl)imidazo[1,2-a]pyridin-2-yl)methyl)-1H-pyrazole-4-carboxamide] | 10 to 100 nM |
| O=C(NCc1ncn2ccc(Cl)cc12)c1cnn(Cc2cn3cccc(C4(C(=O)O)CC4)c3n2)c1 [Example I-116, 1-(2-((4-(((7-chloroimidazo[1,5-a]pyridin-1-yl)methyl)carbamoyl)-1H-pyrazol-1-yl)methyl)imidazo[1,2-a]pyridin-8-yl)cyclopropane-1-carboxylic acid] | 1 to 10 nM |
| O=C(NCc1ncn2ccc(Br)c(F)c12)c1nnc(Cc2cn3nc(C4CC4)ccc3n2)o1 [Example I-140, N-((7-bromo-8-fluoroimidazo[1,5-a]pyridin-1-yl)methyl)-5-((6-cyclopropylimidazo[1,2-b]pyridazin-2-yl)methyl)-1,3,4-oxadiazole-2-carboxamide] | < 1 nM |
| CCOC(=O)C(C)(C)Oc1cc(C2CC2)cn2cc(Cn3cc(C(=O)NCc4ncn5ccc(Cl)c(F)c45)nn3)nc12 [Example I-223, ethyl 2-((2-((4-(((7-chloro-8-fluoroimidazo[1,5-a]pyridin-1-yl)methyl)carbamoyl)-1H-1,2,3-triazol-1-yl)methyl)-6-cyclopropylimidazo[1,2-a]pyridin-8-yl)oxy)-2-methylpropanoate] | < 1 nM |
| O=C(NCc1ncn2ccc(Cl)c(F)c12)c1cn(Cc2cn3cc(C4CC4)cc(COCCO)c3n2)nn1 [Example I-301, N-((7-chloro-8-fluoroimidazo[1,5-a]pyridin-1-yl)methyl)-1-((6-cyclopropyl-8-((2-hydroxyethoxy)methyl)imidazo[1,2-a]pyridin-2-yl)methyl)-1H-1,2,3-triazole-4-carboxamide] | < 1 nM |
| COC(=O)c1c(Cn2cc(C(=O)NCc3ncn4ccc(Cl)c(F)c34)nn2)[nH]c2cc(C3CC3)ccc12 [Example I-195, methyl 2-((4-(((7-chloro-8-fluoroimidazo[1,5-a]pyridin-1-yl)methyl)carbamoyl)-1H-1,2,3-triazol-1-yl)methyl)-6-cyclopropyl-1H-indole-3-carboxylate] | 100 to 2000 nM |
| N#Cc1cc(C2CC2)cn2cc(Cn3cc(C(=O)NCc4ncn5ccc(Cl)cc45)cn3)nc12 [Example I-92, N-((7-chloroimidazo[1,5-a]pyridin-1-yl)methyl)-1-((8-cyano-6-cyclopropylimidazo[1,2-a]pyridin-2-yl)methyl)-1H-pyrazole-4-carboxamide] | < 1 nM |
| O=C(NCc1ncn2ccc(Cl)c(F)c12)c1cn(Cc2cn3cc(C4CC4)cc(C(F)(F)F)c3n2)nn1 [Example I-185, N-((7-chloro-8-fluoroimidazo[1,5-a]pyridin-1-yl)methyl)-1-((6-cyclopropyl-8-(trifluoromethyl)imidazo[1,2-a]pyridin-2-yl)methyl)-1H-1,2,3-triazole-4-carboxamide] | < 1 nM |
| O=C(NCc1ncn2ccc(Cl)c(F)c12)c1cn(Cc2cn3cc(C4CC4)cc(C(O)C4COC4)c3n2)nn1 (centres unmarked) [Example I-279, N-((7-chloro-8-fluoroimidazo[1,5-a]pyridin-1-yl)methyl)-1-((6-cyclopropyl-8-(hydroxy(oxetan-3-yl)methyl)imidazo[1,2-a]pyridin-2-yl)methyl)-1H-1,2,3-triazole-4-carboxamide] | < 1 nM |
| O=C(NCc1ncn2ccc(Cl)c(F)c12)c1cn(Cc2cc3cc(C4CC4)cnc3s2)nn1 [Example I-189, N-((7-chloro-8-fluoroimidazo[1,5-a]pyridin-1-yl)methyl)-1-((5-cyclopropylthieno[2,3-b]pyridin-2-yl)methyl)-1H-1,2,3-triazole-4-carboxamide] | < 1 nM |
| O=C(NCc1ncn2ccc(Cl)c(F)c12)c1cn(Cc2cn3cc(C4CC4)c(F)cc3n2)nn1 [Example I-239, N-((7-chloro-8-fluoroimidazo[1,5-a]pyridin-1-yl)methyl)-1-((6-cyclopropyl-7-fluoroimidazo[1,2-a]pyridin-2-yl)methyl)-1H-1,2,3-triazole-4-carboxamide] | 1 to 10 nM |

From patent US10730874B2 (Shire Human Genetic Therapies, Inc., priority 2018, dated 2020)
